In PubChem BioAssay (NCI):
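Cells were grown in 96-well plates and exposed to each compound for 48 hours at five concentrations; endpoints were interpolated linearly between bracketing concentrations, or set to the highest concentration if not reached. At the TGI there is no net growth.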 Where a SMILES comes first, the peptide text is derived from it. [ ]: non-standard residue; d: D form. The star is where a group is joined. Phe(4-NO2) = N[CH](Cc1ccc([N+](=O)[O-])cc1)C(=O)O; Boc = CC(C)(C)OC(=O)*; OBn = c1ccc(CO*)cc1

Tests used:
Experiment in all cases: growth of human tumour cells (NCI), 48 h
786-0 renal = tested on: 786-0 renal
EKVX NSCLC = tested on: EKVX NSCLC
HS 578T breast = tested on: HS 578T breast
K-562 leukemia = tested on: K-562 leukemia
SF-539 CNS = tested on: SF-539 CNS
SK-MEL-28 melanoma = tested on: SK-MEL-28 melanoma
SN12C renal = tested on: SN12C renal
SW-620 colon = tested on: SW-620 colon
TK-10 renal = tested on: TK-10 renal
U251 CNS = tested on: U251 CNS

Compound | TGI (786-0 renal) | TGI (EKVX NSCLC) | TGI (HS 578T breast) | TGI (K-562 leukemia) | TGI (SF-539 CNS) | TGI (SK-MEL-28 melanoma) | TGI (SN12C renal) | TGI (SW-620 colon) | TGI (TK-10 renal) | TGI (U251 CNS)
COC(=O)CCC(NC(=O)OC(C)(C)C)C(=O)NC(Cc1ccc([N+](=O)[O-])cc1)C(=O)NCC(=O)OCc1ccccc1 (stereo not given) (Boc-Glu(OMe)-[Phe(4-NO2)]-Gly-OBn; configuration not given here) | > 100 µM | > 100 µM | > 64.4 µM | > 100 µM | 63.6 µM | > 100 µM | > 100 µM | > 100 µM | > 100 µM | > 100 µM
CC(=O)c1ccc(N=Nc2ccc3nonc3c2N)cc1 | > 100 µM | > 100 µM | > 100 µM | > 100 µM | > 100 µM | > 100 µM | > 100 µM | > 100 µM | > 100 µM | > 100 µM
Cc1ccc(S(=O)(=O)N/C(=C\C=C\c2ccccc2)C(=O)C(C)(C)C)cc1 | 73.6 µM | > 100 µM | > 100 µM | > 100 µM | > 100 µM | > 100 µM | > 100 µM | > 100 µM | > 100 µM | > 100 µM
CC(=O)OC[C@H]1O[C@@H](O[C@H]2[C@H](OC(C)=O)C=CO[C@@H]2COC(C)=O)C(OC(C)=O)[C@H]2OC(C)(C)O[C@H]21 (stereo not given in full) | > 100 µM | > 100 µM | > 100 µM | > 100 µM | > 100 µM | > 100 µM | > 100 µM | > 100 µM | > 100 µM | > 100 µM
COc1cccc(N2C(=O)C3c4[nH]c5ccccc5c4C4c5ccccc5CCC4C3C2=O)c1 (stereo not given) | > 8.35 µM | > 10 µM | 7.06 µM | > 10 µM | 6.11 µM | > 10 µM | > 10 µM | > 10 µM | > 10 µM | > 8.12 µM
CC(=O)O/C=C\OC1CCCC1(c1ccccc1)c1ccccc1 (stereo not given) | 7.75 µM | 20.7 µM | 9.8 µM | 9.05 µM | 3.68 µM | 4.59 µM | 10.3 µM | 4.72 µM | 9.33 µM | 11.6 µM
COc1cc2c3cc1Oc1c(O)c(OC)cc4c1[C@H](Cc1ccc(cc1)Oc1cc(ccc1O)C[C@H]3N(C)CC2)N(C)CC4 | 21.7 µM | 48.1 µM | 64.9 µM | 17.6 µM | 10.9 µM | 39.2 µM | 34.6 µM | 57.3 µM | 48.6 µM | 28 µM
O=c1[nH]nc(Cc2ccccc2)n1/N=C/c1c[nH]c2ccccc12 | > 100 µM | > 100 µM | 79.4 µM | > 100 µM | > 100 µM | > 100 µM | > 100 µM | > 100 µM | > 100 µM | > 100 µM
COc1ccc2c(c1)O[C@@H]1C(O)Oc3cc(OC)c(OC)cc3[C@]1(O)C2=O (stereo not given in full) | > 100 µM | > 100 µM | > 100 µM | > 100 µM | > 100 µM | > 100 µM | > 100 µM | > 100 µM | > 100 µM | > 100 µM
C=CC(=O)N1C/C(=C\c2ccc(N(C)C)cc2)C(=O)/C(=C/c2ccc(N(C)C)cc2)C1 | > 100 µM | > 100 µM | > 100 µM | > 100 µM | > 100 µM | > 100 µM | > 100 µM | > 100 µM | > 100 µM | > 100 µM
Cc1ccc(C(=O)N(C2CCCCC2)C2CCCCC2)cc1N=NN(C)C | 28.7 µM | 32.3 µM | 43.9 µM | 47.6 µM | 37.2 µM | 17.9 µM | 28.7 µM | 24.5 µM | 24 µM | 34.1 µM
CCN1CC(C)Cn2c(=O)[nH]c3cc(Br)cc1c32 (stereo not given) | > 100 µM | 52 µM | 74.3 µM | > 100 µM | > 100 µM | > 100 µM | > 100 µM | > 100 µM | > 100 µM | > 100 µM
Cc1ccc(F)cc1NC(=O)O/N=C(\Cl)C(C)C | 15.7 µM | 15.5 µM | > 65.6 µM | 5.72 µM | 18.1 µM | 38 µM | 11.4 µM | 3.18 µM | 15 µM | > 56.4 µM
Oc1ccc(Cl)cc1C1=N/C(=N\CN2CCN(C/N=C3/N=C(c4cc(Cl)ccc4O)CC(c4ccccc4)N3)CC2)NC(c2ccccc2)C1 (stereo not given) | 65.4 µM | > 100 µM | > 100 µM | > 100 µM | > 100 µM | > 100 µM | 64.3 µM | > 100 µM | > 100 µM | > 100 µM
CN(C)C(=S)N/N=C\C=N/NC(=S)N(C)C | > 100 µM | > 100 µM | > 23.4 µM | > 100 µM | > 100 µM | > 100 µM | 11.1 µM | > 100 µM | > 100 µM | > 100 µM
COc1ccc2c(c1)OC(c1cccnc1)C(c1ccccc1)C2=O (stereo not given) | > 100 µM | > 100 µM | > 100 µM | > 100 µM | > 100 µM | > 100 µM | > 100 µM | > 100 µM | > 100 µM | > 100 µM
CC(=O)Oc1ccc(/C=C/C(=O)O[C@@H](C)[C@H](C)OC(=O)/C=C/c2ccc(OC(C)=O)c(OC(C)=O)c2)cc1OC(C)=O | > 100 µM | 79.7 µM | > 100 µM | > 100 µM | > 100 µM | 77.7 µM | > 100 µM | 35.3 µM | > 100 µM | > 100 µM
CCC1C(=O)C[C@H]2[C@@H]3C(O)CC4=CC(=O)CC[C@]4(C)[C@H]3CC[C@]12C (stereo not given in full) | > 50 µM | > 50 µM | > 50 µM | > 50 µM | > 50 µM | > 50 µM | > 50 µM | > 50 µM | > 50 µM | > 50 µM
Oc1ccc(/C=C\c2nnc(/C=C\c3ccc(O)c(O)c3)s2)cc1O | 38.6 µM | > 54.6 µM | 28.7 µM | > 27.9 µM | 13.8 µM | 25.2 µM | 24 µM | 13.3 µM | 21.4 µM | 13.5 µM
c1ccc2c(-c3cnc(-c4c[nH]c5ccccc45)cn3)c[nH]c2c1 | > 100 µM | > 100 µM | > 100 µM | > 100 µM | 73.7 µM | > 100 µM | > 100 µM | 47.9 µM | > 100 µM | > 100 µM
